Literature values in patent publication US20240299291A1, “OPHTHALMIC PREPARATION ADMINISTERED BY EYE DROPS AND USED FOR PREVENTING AND TREATING DRY MACULAR DEGENERATION AND RETINAL LIGHT DAMAGE” (CHENGDU RUIMU BIOPHARMACEUTICALS CO., LTD., priority 2021, published 2024).

Key:
[1] = test system: age-related macular degeneration (AMD); conditions: oral metformin
[2] = test system: AMD; open-angle glaucoma
[3] = test system: retinal light damage; conditions: injection into the vitreous cavity of mice, up to 500 mg/kg/day, 7 days, before light damage
[4] = test system: AMPK (adenosine mono-phosphate activated protein kinase); conditions: mice

For `CN(C)C(=N)N=C(N)N` [metformin], the “Risk of AMD in patients with type 2 diabetes versus patients who did not take metformin” value [1] is given as “significantly lower”, the “Reduction of the incidence of open-angle glaucoma versus patients who did not take metformin” value ([2]; high-dose group (>1110 g metformin for 2 years)) is given as 25% and the “Effect on the occurrence or development of AMD” value ([2]; oral metformin) is given as “may have therapeutic effect on the occurrence or development of AMD”. For the same compound, the “Prevention of light damage” value [3] was “almost completely prevent the light damage” and the “AMPK activation in the retina of eyes” value [4] was “locally activates AMPK”.
